Data as given in US20220089598A1, “INHIBITORS OF HUMAN IMMUNODEFICIENCY VIRUS REPLICATION” (VIIV HEALTHCARE UK (No. 5) LIMITED, priority 2018, published 2022).

Legend:
[1] = tested on: recombinant NL4-3 virus (Renilla luciferase) in MT-2 cells; test: HIV cell culture assay (antiviral activity, luciferase readout); type: cell-based; details: Renilla, NL43
Protocol: HIV cell culture assay—MT-2 cells, 293T cells and the proviral DNA clone of NL4-3 virus were obtained from the NIH AIDS Research and Reference Reagent Program. MT-2 cells were propagated in RPMI 1640 media supplemented with 10% heat inactivated fetal bovine serum (FBS), 100 μg/ml penicillin G and up to 100 units/mL streptomycin. The 293T cells were propagated in DMEM media supplemented with 10% heat inactivated FBS, 100 μg/mL penicillin G and 100 μg/mL streptomycin. A recombinant NL4-3 proviral clone, in which a section of the nef gene was replaced with the Renilla luciferase gene, was used to make the reference virus used in these studies. The recombinant virus was prepared through transfection of the recombinant NL4-3 proviral clone into 293T cells using Transit-293 Transfection Reagent from Mirus Bio LLC (Madison, Wis.). Supernatent was harvested after 2-3 days and the amount of virus present was titered in MT-2 cells using luciferase enzyme activity as a marker by measuring luciferase enzyme activity. Luciferase was quantitated using the EnduRen Live Cell Substrate from Promega (Madison, Wis.). Antiviral activities of compounds toward the recombinant virus were quantified by measuring luciferase activity in MT-2 cells infected for 4-5 days with the recombinant virus in the presence of serial dilutions of the compound.
The 50% effective concentration (EC50) was calculated by using the exponential form of the median effect equation where (Fa)=1/[1+(ED50/drug conc.)m] (Johnson V A, Byington R T. Infectivity Assay. In Techniques in HIV Research. ed. Aldovini A, Walker B D. 71-76. New York: Stockton Press. 1990).

[2] = Compound cytotoxicity, XTT-based colorimetric assay; type: cell-based; details: human; uninfected MT2 cells, day 4, XTT assay
Protocol: Compound cytotoxicity and the corresponding CC50 values were determined using the same protocol as described in the antiviral assay except that uninfected cells were used. Cytotoxicity was assessed on day 4 in uninfected MT2 cells by using a XTT (2,3-bis[2-Methoxy-4-nitro-5-sulfophenyl]-2H-tetrazolium-5-carboxyanilide inner salt)-based colorimetric assay (Sigma-Aldrich, St Louis, Mo.).

Q: Which EC50 [1] does the source give for `CS(=O)(=O)Nc1nn(CC(F)F)c2c(-n3c([C@H](Cc4cc(F)cc(F)c4)NC(=O)Cn4ccc(C5CC5)n4)nc4nc(-c5ccccc5F)ccc4c3=O)ccc(Cl)c12` (atropisomer, axis not shown; (P)) [Example 33, (S)—N-(1-((3P)-3-(4-chloro-1-(2,2-difluoroethyl)-3-(methylsulfonamido)-1H-indazol-7-yl)-7-(2-fluorophenyl)-4-oxo-3,4-dihydropyrido[2,3-d]pyrimidin-2-yl)-2-(3,5-difluorophenyl)ethyl)-2-(3-cyclopropyl-1H-pyrazol-1-yl)acetamide] here?
A: 0.15 nM

Q: What about the CC50 at 4 day [2] of the same compound?
A: > 500 nM

Q: With `Cn1nc(NS(C)(=O)=O)c2c(Cl)ccc(-n3c([C@H](Cc4cc(F)cc(F)c4)NC(=O)Cn4nc(C(F)F)c5c4C(F)(F)[C@@H]4C[C@H]54)nc4nc(-c5ccc(F)c(F)c5F)ccc4c3=O)c21` (atropisomer, axis not shown; (P)) [Example 15, N—((S)-1-((3P)-3-(4-chloro-1-methyl-3-(methylsulfonamido)-1H-indazol-7-yl)-4-oxo-7-(2,3,4-trifluorophenyl)-3,4-dihydropyrido[2,3-d]pyrimidin-2-yl)-2-(3,5-difluorophenyl)ethyl)-2-((3bS,4aR)-3-(difluoromethyl)-5,5-difluoro-3b,4,4a,5-tetrahydro-1H-cyclopropa[3,4]cyclopenta[1,2-c]pyrazol-1-yl)acetamide] as the compound, how does the EC50 [1] read?
A: 0.035 nM

Q: And the CC50 at 4 day [2]?
A: > 100 nM

Q: For `Cn1nc(NS(C)(=O)=O)c2c(Cl)ccc(-n3c([C@H](Cc4cc(F)cc(F)c4)NC(=O)Cn4nc(C(F)F)c5c4C(F)(F)[C@@H]4C[C@H]54)nc4nc(-c5ccc(C(F)(F)F)cc5)ccc4c3=O)c21` (atropisomer, axis not shown; (P)) [Example 14, N—((S)-1-((3P)-3-(4-chloro-1-methyl-3-(methylsulfonamido)-1H-indazol-7-yl)-4-oxo-7-(4-(trifluoromethyl)phenyl)-3,4-dihydropyrido[2,3-d]pyrimidin-2-yl)-2-(3,5-difluorophenyl)ethyl)-2-((3bS,4aR)-3-(difluoromethyl)-5,5-difluoro-3b,4,4a,5-tetrahydro-1H-cyclopropa[3,4]cyclopenta[1,2-c]pyrazol-1-yl)acetamide], which EC50 [1] is on record?
A: 0.084 nM

Q: What about the CC50 at 4 day [2] of the same compound?
A: > 100 nM

Q: For `O=C(Cn1ccc(C2CC2)n1)N[C@@H](Cc1cc(F)cc(F)c1)c1nc2nc(-c3ccccc3F)ccc2c(=O)n1-c1ccc(Cl)c2c(NS(=O)(=O)C3CC3)nn(CC(F)F)c12` (atropisomer, axis not shown; (P)) [Example 35, (S)—N-(1-((3P)-3-(4-chloro-3-(cyclopropanesulfonamido)-1-(2,2-difluoroethyl)-1H-indazol-7-yl)-7-(2-fluorophenyl)-4-oxo-3,4-dihydropyrido[2,3-d]pyrimidin-2-yl)-2-(3,5-difluorophenyl)ethyl)-2-(3-cyclopropyl-1H-pyrazol-1-yl)acetamide], which EC50 [1] is on record?
A: 0.2 nM

Q: And the CC50 at 4 day [2]?
A: > 500 nM

Q: Which EC50 [1] does the source give for `Cn1nc(NS(C)(=O)=O)c2c(Cl)ccc(-n3c([C@H](Cc4cc(F)cc(F)c4)NC(=O)Cn4nc(C(F)F)c5c4C(F)(F)[C@@H]4C[C@H]54)nc4nc(-c5ccccc5F)ccc4c3=O)c21` (atropisomer, axis not shown; (P)) [Example 1, N—((S)-1-((3P)-3-(4-chloro-1-methyl-3-(methylsulfonamido)-1H-indazol-7-yl)-7-(2-fluorophenyl)-4-oxo-3,4-dihydropyrido[2,3-d]pyrimidin-2-yl)-2-(3,5-difluorophenyl)ethyl)-2-((3bS,4aR)-3-(difluoromethyl)-5,5-difluoro-3b,4,4a,5-tetrahydro-1H-cyclopropa[3,4]cyclopenta[1,2-c]pyrazol-1-yl)acetamide] here?
A: 0.06 nM

Q: And the CC50 at 4 day [2]?
A: > 1000 nM

Q: Which results are given for `Cn1nc(NS(C)(=O)=O)c2c(Cl)ccc(-n3c([C@H](Cc4cc(F)cc(F)c4)NC(=O)Cn4nc(C(F)F)c5c4C(F)(F)[C@@H]4C[C@H]54)nc4nc(-c5ccc(Cl)cc5Cl)ccc4c3=O)c21` (atropisomer, axis not shown; (P)) [Example 25, N—((S)-1-((3P)-3-(4-chloro-1-methyl-3-(methylsulfonamido)-1H-indazol-7-yl)-7-(2,4-dichlorophenyl)-4-oxo-3,4-dihydropyrido[2,3-d]pyrimidin-2-yl)-2-(3,5-difluorophenyl)ethyl)-2-((3bS,4aR)-3-(difluoromethyl)-5,5-difluoro-3b,4,4a,5-tetrahydro-1H-cyclopropa[3,4]cyclopenta[1,2-c]pyrazol-1-yl)acetamide]?
A: EC50 [1]: 0.42 nM; CC50 at 4 day [2]: > 100 nM

Q: With `CS(=O)(=O)Nc1nn(CC(F)F)c2c(-n3c([C@H](Cc4cc(F)cc(F)c4)NC(=O)Cn4nc(C(F)F)c5c4C(F)(F)[C@@H]4C[C@H]54)nc4nc(-c5ccccc5F)ccc4c3=O)ccc(Cl)c12` (atropisomer, axis not shown; (P)) [Example 10, N—((S)-1-((3P)-3-(4-chloro-1-(2,2-difluoroethyl)-3-(methylsulfonamido)-1H-indazol-7-yl)-7-(2-fluorophenyl)-4-oxo-3,4-dihydropyrido[2,3-d]pyrimidin-2-yl)-2-(3,5-difluorophenyl)ethyl)-2-((3bS,4aR)-3-(difluoromethyl)-5,5-difluoro-3b,4,4a,5-tetrahydro-1H-cyclopropa[3,4]cyclopenta[1,2-c]pyrazol-1-yl)acetamide] as the compound, how does the EC50 [1] read?
A: 0.097 nM

Q: What about the CC50 at 4 day [2] of the same compound?
A: > 100 nM

Q: With `Cn1nc(NS(C)(=O)=O)c2c(Cl)ccc(-n3c([C@H](Cc4cc(F)cc(F)c4)NC(=O)Cn4nc(C(F)F)c5c4C(F)(F)[C@@H]4C[C@H]54)nc4nc(-c5ccc(F)cc5F)ccc4c3=O)c21` (atropisomer, axis not shown; (P)) [Example 39, N—((S)-1-((3P)-3-(4-chloro-1-methyl-3-(methylsulfonamido)-1H-indazol-7-yl)-7-(2,4-difluorophenyl)-4-oxo-3,4-dihydropyrido[2,3-d]pyrimidin-2-yl)-2-(3,5-difluorophenyl)ethyl)-2-((3bS,4aR)-3-(difluoromethyl)-5,5-difluoro-3b,4,4a,5-tetrahydro-1H-cyclopropa[3,4]cyclopenta[1,2-c]pyrazol-1-yl)acetamide] as the compound, how does the EC50 [1] read?
A: 0.047 nM

Q: What about the CC50 at 4 day [2] of the same compound?
A: > 500 nM

Q: For `Cn1nc(NS(C)(=O)=O)c2c(Cl)ccc(-n3c([C@H](Cc4cc(F)cc(F)c4)NC(=O)Cn4nc(C(F)(F)F)c5c4C(F)(F)[C@@H]4C[C@H]54)nc4nc(-c5ccc(F)cc5F)ccc4c3=O)c21` (atropisomer, axis not shown; (P)) [Example 24, N—((S)-1-((3P)-3-(4-chloro-1-methyl-3-(methylsulfonamido)-1H-indazol-7-yl)-7-(2,4-difluorophenyl)-4-oxo-3,4-dihydropyrido[2,3-d]pyrimidin-2-yl)-2-(3,5-difluorophenyl)ethyl)-2-((3bS,4aR)-5,5-difluoro-3-(trifluoromethyl)-3b,4,4a,5-tetrahydro-1H-cyclopropa[3,4]cyclopenta[1,2-c]pyrazol-1-yl)acetamide], which EC50 [1] is on record?
A: 0.067 nM

Q: What about the CC50 at 4 day [2] of the same compound?
A: > 500 nM

Q: What does the source list for `COc1nc2nc([C@H](Cc3cc(F)cc(F)c3)NC(=O)Cn3nc(C(F)F)c4c3C(F)(F)[C@@H]3C[C@H]43)n(-c3ccc(Cl)c4c(NS(C)(=O)=O)nn(C)c34)c(=O)c2cc1-c1ccccc1F` (atropisomer, axis not shown; (P)) [Example 2, N—((S)-1-((3P)-3-(4-chloro-1-methyl-3-(methylsulfonamido)-1H-indazol-7-yl)-6-(2-fluorophenyl)-7-methoxy-4-oxo-3,4-dihydropyrido[2,3-d]pyrimidin-2-yl)-2-(3,5-difluorophenyl)ethyl)-2-((3bS,4aR)-3-(difluoromethyl)-5,5-difluoro-3b,4,4a,5-tetrahydro-1H-cyclopropa[3,4]cyclopenta[1,2-c]pyrazol-1-yl)acetamide]?
A: EC50 [1]: 0.25 nM; CC50 at 4 day [2]: > 1000 nM

Q: Which EC50 [1] does the source give for `CS(=O)(=O)Nc1nn(CC(F)(F)F)c2c(-n3c([C@H](Cc4cc(F)cc(F)c4)NC(=O)Cn4nc(C(F)F)c5c4C(F)(F)[C@@H]4C[C@H]54)nc4nc(-c5ccccc5F)ccc4c3=O)ccc(Cl)c12` (atropisomer, axis not shown; (P)) [Example 27, N—((S)-1-((3P)-3-(4-chloro-3-(methylsulfonamido)-1-(2,2,2-trifluoroethyl)-1H-indazol-7-yl)-7-(2-fluorophenyl)-4-oxo-3,4-dihydropyrido[2,3-d]pyrimidin-2-yl)-2-(3,5-difluorophenyl)ethyl)-2-((3bS,4aR)-3-(difluoromethyl)-5,5-difluoro-3b,4,4a,5-tetrahydro-1H-cyclopropa[3,4]cyclopenta[1,2-c]pyrazol-1-yl)acetamide] here?
A: 0.088 nM

Q: And the CC50 at 4 day [2]?
A: > 500 nM
